The subject of this experiment is MV-4-11 cells. Description: Gene expression microarray analysis (Affymetrix PrimeView) and GSEA. Type of experiment: cell-based, human. On the set-up: RFU PODN (11730768_x_at) / Fold change /veh PODN (11730768_x_at) / RFU LINC00158 (11744669_a_at) / Fold change /veh LINC00158 (11744669_a_at) / RFU DUSP10 (11751237_a_at) / Fold change /veh DUSP10 (11751237_a_at) / RFU ID3 (11757404_x_at) / Fold change /veh ID3 (11757404_x_at) / RFU PLEKHG5 (11737974_s_at) / Fold change /veh PLEKHG5 (11737974_s_at) / RFU LRRC4B (11730491_at) / Fold change /veh LRRC4B (11730491_at) / RFU GIMAP4 (11747438_a_at) / Fold change /veh GIMAP4 (11747438_a_at) / RFU KRT8 (11758183_x_at) / Fold change /veh KRT8 (11758183_x_at) / RFU CNN1 (11734310_a_at) / Fold change /veh CNN1 (11734310_a_at) / RFU VPS37D (11726825_at) / Fold change /veh VPS37D (11726825_at) / RFU C10orf10 (11716522_x_at) / Fold change /veh C10orf10 (11716522_x_at) / RFU KIR2DL2 /// KIR2DL4 /// KIR2DL5A /// KIR2DL5B /// KIR2DS1 /// KIR2DS2 /// KIR2DS3 /// KIR2DS4 /// KIR3DL3 /// KIR3DL3 /// KIR3DS1 (11738374_at) / Fold change /veh KIR2DL2 /// KIR2DL4 /// KIR2DL5A /// KIR2DL5B /// KIR2DS1 /// KIR2DS2 /// KIR2DS3 /// KIR2DS4 /// KIR3DL3 /// KIR3DL3 /// KIR3DS1 (11738374_at) / RFU C1QL1 (11718748_at) / Fold change /veh C1QL1 (11718748_at) / RFU TMPRSS4 (11747572_a_at) / Fold change /veh TMPRSS4 (11747572_a_at) / RFU HAMP (11756126_x_at) / Fold change /veh HAMP (11756126_x_at) / RFU RNFT2 (11725882_a_at) / Fold change /veh RNFT2 (11725882_a_at) / RFU NR4A2 (11747474_a_at) / Fold change /veh NR4A2 (11747474_a_at) / RFU ABCC12 (11746883_a_at) / Fold change /veh ABCC12 (11746883_a_at) / RFU TMEM136 (11760407_x_at) / Fold change /veh TMEM136 (11760407_x_at) / RFU CLDN22 /// WWC2 (11732394_at) / Fold change /veh CLDN22 /// WWC2 (11732394_at) / RFU HLA-DPB1 (11760878_x_at) / Fold change /veh HLA-DPB1 (11760878_x_at) / RFU SPINT1 (11716480_a_at) / Fold change /veh SPINT1 (11716480_a_at) / RFU GAP43 (11754022_s_at) / Fold change /veh GAP43 (11754022_s_at) / RFU A4GNT (11735810_at) / Fold change /veh A4GNT (11735810_at) / RFU PRB3 (11715151_x_at) / Fold change /veh PRB3 (11715151_x_at) / RFU TUBB4B (11761932_at) / Fold change /veh TUBB4B (11761932_at) / RFU CAPN14 (11732068_a_at) / Fold change /veh CAPN14 (11732068_a_at) / RFU TMCC2 (11721928_a_at) / Fold change /veh TMCC2 (11721928_a_at) / RFU IRGQ (11745062_a_at) / Fold change /veh IRGQ (11745062_a_at) / RFU FAM174B (11720279_a_at) / Fold change /veh FAM174B (11720279_a_at) / RFU TMPRSS4 (11748680_a_at) / Fold change /veh TMPRSS4 (11748680_a_at) / RFU FAM212B (11763350_a_at) / Fold change /veh FAM212B (11763350_a_at) / RFU PLEKHG5 (11743358_a_at) / Fold change /veh PLEKHG5 (11743358_a_at) / RFU ZSCAN30 (11745921_a_at) / Fold change /veh ZSCAN30 (11745921_a_at) / RFU CMKLR1 (11741424_a_at) / Fold change /veh CMKLR1 (11741424_a_at) / RFU LOC101060620 /// MAPK8IP1 (11723275_at) / Fold change /veh LOC101060620 /// MAPK8IP1 (11723275_at) / RFU SPTSSB (11747773_x_at) / Fold change /veh SPTSSB (11747773_x_at) / RFU PRSS12 (11739890_at) / Fold change /veh PRSS12 (11739890_at) / RFU BIN1 (11741810_x_at) / Fold change /veh BIN1 (11741810_x_at) / RFU WNT11 (11732464_a_at) / Fold change /veh WNT11 (11732464_a_at) / RFU C10orf10 (11716521_a_at) / Fold change /veh C10orf10 (11716521_a_at) / RFU C5orf56 (11738089_at) / Fold change /veh C5orf56 (11738089_at) / RFU CYB561 (11721691_x_at) / Fold change /veh CYB561 (11721691_x_at) / RFU ANKRD19P (11752326_a_at) / Fold change /veh ANKRD19P (11752326_a_at) / RFU OR2T12 /// OR2T33 /// OR2T8 (11738714_s_at) / Fold change /veh OR2T12 /// OR2T33 /// OR2T8 (11738714_s_at) / RFU VCAN (11748164_a_at) / Fold change /veh VCAN (11748164_a_at) / RFU JSRP1 (11732532_at) / Fold change /veh JSRP1 (11732532_at) / RFU KRTAP10-11 (11738290_x_at) / Fold change /veh KRTAP10-11 (11738290_x_at) / RFU MYO3A (11730013_a_at) / Fold change /veh MYO3A (11730013_a_at) / RFU EBF3 (11725865_a_at) / Fold change /veh EBF3 (11725865_a_at) / RFU CAMK2N1 (11719241_x_at) / Fold change /veh CAMK2N1 (11719241_x_at) / RFU C5orf56 (11738088_a_at) / Fold change /veh C5orf56 (11738088_a_at) / RFU OLFML3 (11715873_a_at) / Fold change /veh OLFML3 (11715873_a_at) / RFU LOC100653217 /// NTM (11731650_a_at) / Fold change /veh LOC100653217 /// NTM (11731650_a_at) / RFU MAPK11 (11762145_a_at) / Fold change /veh MAPK11 (11762145_a_at) / RFU FIZ1 (11724087_x_at) / Fold change /veh FIZ1 (11724087_x_at) / RFU OASL (11726364_x_at) / Fold change /veh OASL (11726364_x_at) / RFU SOX15 (11748057_x_at) / Fold change /veh SOX15 (11748057_x_at) / RFU CD79A (11719716_a_at) / Fold change /veh CD79A (11719716_a_at) / RFU HIST1H1D (11736915_at) / Fold change /veh HIST1H1D (11736915_at) / RFU CASKIN2 (11723855_a_at) / Fold change /veh CASKIN2 (11723855_a_at) / RFU LOC730098 (11760151_x_at) / Fold change /veh LOC730098 (11760151_x_at) / RFU OR4N2 (11742367_at) / Fold change /veh OR4N2 (11742367_at) / RFU PRRT2 (11749266_a_at) / Fold change /veh PRRT2 (11749266_a_at) / RFU SNX32 (11753110_a_at) / Fold change /veh SNX32 (11753110_a_at) / RFU CDHR5 (11726645_a_at) / Fold change /veh CDHR5 (11726645_a_at) / RFU RCAN1 (11760418_a_at) / Fold change /veh RCAN1 (11760418_a_at) / RFU FAM167A (11723789_a_at) / Fold change /veh FAM167A (11723789_a_at) / RFU FAM26E (11764081_at) / Fold change /veh FAM26E (11764081_at) / RFU ISYNA1 (11749810_s_at) / Fold change /veh ISYNA1 (11749810_s_at) / RFU ACY1 (11761880_at) / Fold change /veh ACY1 (11761880_at) / RFU 11764098_at / Fold change /veh 11764098_at / RFU SAMD14 (11745864_x_at) / Fold change /veh SAMD14 (11745864_x_at) / RFU NPB (11741838_a_at) / Fold change /veh NPB (11741838_a_at) / RFU TMPRSS6 (11731388_a_at) / Fold change /veh TMPRSS6 (11731388_a_at) / RFU KRTAP10-2 (11738614_at) / Fold change /veh KRTAP10-2 (11738614_at) / RFU ARHGAP8 /// PRR5-ARHGAP8 (11727945_x_at) / Fold change /veh ARHGAP8 /// PRR5-ARHGAP8 (11727945_x_at) / RFU KRTAP5-7 /// NADSYN1 (11734609_at) / Fold change /veh KRTAP5-7 /// NADSYN1 (11734609_at) / RFU RASL12 (11751679_a_at) / Fold change /veh RASL12 (11751679_a_at) / RFU CDKN2B (11736163_a_at) / Fold change /veh CDKN2B (11736163_a_at) / RFU PRF1 (11729649_at) / Fold change /veh PRF1 (11729649_at) / RFU, ZNF638 /// ZNF638-IT1 / Fold change vs veh, ZNF638 /// ZNF638-IT1 / RFU, PANK3 / Fold change vs veh, PANK3 / RFU, SH3YL1 / Fold change vs veh, SH3YL1 / RFU, ZEB2 / Fold change vs veh, ZEB2 / RFU, NRIP1 / Fold change vs veh, NRIP1 / RFU, PTTG1IP / Fold change vs veh, PTTG1IP / RFU, CAPN2 / Fold change vs veh, CAPN2 / RFU, MED14 / Fold change vs veh, MED14 / RFU, SNORA58 / Fold change vs veh, SNORA58 / RFU, C1orf63 / Fold change vs veh, C1orf63 / RFU, LRRFIP1 / Fold change vs veh, LRRFIP1 / RFU, NDUFAF7 / Fold change vs veh, NDUFAF7 / RFU, SLC12A2 / Fold change vs veh, SLC12A2 / RFU, IBTK / Fold change vs veh, IBTK / RFU, ESF1 / Fold change vs veh, ESF1 / Fold change vs veh, TMEM50B / RFU, TAOK1 / Fold change vs veh, TAOK1 / RFU, ACBD3 / Fold change vs veh, ACBD3 / RFU, TMA16 / Fold change vs veh, TMA16 / RFU, RWDD3 / Fold change vs veh, RWDD3 / RFU, BCAT1 / Fold change vs veh, BCAT1 / RFU, EDEM3 / Fold change vs veh, EDEM3 / RFU, TMEM33 / Fold change vs veh, TMEM33 / RFU, WDR75 / Fold change vs veh, WDR75 / RFU, AHCTF1 / Fold change vs veh, AHCTF1 / RFU, TFRC / Fold change vs veh, TFRC / RFU, ZDHHC17 / Fold change vs veh, ZDHHC17 / RFU, NOM1 / Fold change vs veh, NOM1 / RFU, ARL8B / Fold change vs veh, ARL8B / RFU, ZBTB11 / Fold change vs veh, ZBTB11 / RFU, TAMM41 / Fold change vs veh, TAMM41 / RFU, KIAA1704 /// LOC100996395 / Fold change vs veh, KIAA1704 /// LOC100996395 / RFU, ING1 / Fold change vs veh, ING1 / RFU, TRMT61B / Fold change vs veh, TRMT61B / RFU, FUBP3 / Fold change vs veh, FUBP3 / RFU, TP53 / Fold change vs veh, TP53 / RFU, TNKS2 / Fold change vs veh, TNKS2 / RFU, ZFP14 / Fold change vs veh, ZFP14 / RFU, ACTR2 / Fold change vs veh, ACTR2 / RFU, PPP3R1 / Fold change vs veh, PPP3R1 / RFU, PIK3R1 / Fold change vs veh, PIK3R1 / RFU, HNRNPA1 / Fold change vs veh, HNRNPA1 / RFU, RNF170 / Fold change vs veh, RNF170 / RFU, ZNF28 / Fold change vs veh, ZNF28 / RFU, RNGTT / Fold change vs veh, RNGTT / RFU, OGT / Fold change vs veh, OGT / RFU, BRD1 / Fold change vs veh, BRD1 / RFU, MARS / Fold change vs veh, MARS / RFU, ZNF655 / Fold change vs veh, ZNF655 / RFU, FAHD1 / Fold change vs veh, FAHD1 / RFU, BDP1 / Fold change vs veh, BDP1 / RFU, LRRCC1 / Fold change vs veh, LRRCC1 / RFU, ARID1A / Fold change vs veh, ARID1A / RFU, ZNF146 / Fold change vs veh, ZNF146 / RFU, ZNF330 / Fold change vs veh, ZNF330 / RFU, GPN3 / Fold change vs veh, GPN3 / RFU, C9orf123 / Fold change vs veh, C9orf123 / RFU, N4BP2L2 / Fold change vs veh, N4BP2L2 / RFU, ARFIP1 / Fold change vs veh, ARFIP1 / RFU, FAM179B / Fold change vs veh, FAM179B / RFU, BCL10 / Fold change vs veh, BCL10 / RFU, UHRF1BP1L / Fold change vs veh, UHRF1BP1L / RFU, BET1 / Fold change vs veh, BET1 / RFU, CNOT2 / Fold change vs veh, CNOT2 / RFU, ZNF268 / Fold change vs veh, ZNF268 / Fold change vs veh, ZNF507 / RFU, DGCR2 / Fold change vs veh, DGCR2 / RFU, WDSUB1 / Fold change vs veh, WDSUB1 / Fold change vs veh, HSP90B1 /// MIR3652 / RFU, ADSS / Fold change vs veh, ADSS / RFU, GK / Fold change vs veh, GK / RFU, ZNF148 / Fold change vs veh, ZNF148 / RFU, TAF9 / Fold change vs veh, TAF9 / RFU, SLC1A5 / Fold change vs veh, SLC1A5 / RFU, SLMO2 / Fold change vs veh, SLMO2 / RFU, ABCC4 / Fold change vs veh, ABCC4 / RFU, LOC101060439 /// RAP1B / Fold change vs veh, LOC101060439 /// RAP1B / RFU, RFX7 / Fold change vs veh, RFX7 / RFU, GTPBP10 / Fold change vs veh, GTPBP10 / RFU, CNEP1R1 / Fold change vs veh, CNEP1R1 / RFU, BIVM-ERCC5 /// ERCC5 / Fold change vs veh, BIVM-ERCC5 /// ERCC5 / RFU, ILF3 / Fold change vs veh, ILF3 / RFU 11762660_at / Fold change /veh 11762660_at / RFU VCAN (11757783_s_at) / Fold change /veh VCAN (11757783_s_at) / RFU DDX43 (11728927_at) / Fold change /veh DDX43 (11728927_at) / RFU KRT8 (11758188_x_at) / Fold change /veh KRT8 (11758188_x_at) / RFU NKD1 (11759106_at) / Fold change /veh NKD1 (11759106_at) / RFU SRD5A1 (11742802_a_at) / Fold change /veh SRD5A1 (11742802_a_at) / RFU TPSAB1 /// TPSB2 (11721975_s_at) / Fold change /veh TPSAB1 /// TPSB2 (11721975_s_at) / RFU GSTM3 (11746129_a_at) / Fold change /veh GSTM3 (11746129_a_at) / RFU IL23R (11737362_x_at) / Fold change /veh IL23R (11737362_x_at) / RFU TMEM51 (11727254_a_at) / Fold change /veh TMEM51 (11727254_a_at) / RFU PIWIL2 (11732686_x_at) / Fold change /veh PIWIL2 (11732686_x_at) / RFU ORM1 (11744905_x_at) / Fold change /veh ORM1 (11744905_x_at) / RFU CCDC152 (11743942_at) / Fold change /veh CCDC152 (11743942_at) / RFU ECM1 (11717891_a_at) / Fold change /veh ECM1 (11717891_a_at) / RFU IL23R (11748794_a_at) / Fold change /veh IL23R (11748794_a_at) / RFU TNFAIP8L3 (11732012_x_at) / Fold change /veh TNFAIP8L3 (11732012_x_at) / RFU MBOAT4 (11741988_at) / Fold change /veh MBOAT4 (11741988_at) / RFU 11764193_at / Fold change /veh 11764193_at / RFU TMEM53 (11763286_at) / Fold change /veh TMEM53 (11763286_at) / RFU MAGEB2 (11727129_at) / Fold change /veh MAGEB2 (11727129_at) / RFU TMEM200A (11744735_a_at) / Fold change /veh TMEM200A (11744735_a_at) / RFU CCDC152 (11751479_a_at) / Fold change /veh CCDC152 (11751479_a_at) / RFU FAM211A (11726209_a_at) / Fold change /veh FAM211A (11726209_a_at) / RFU RGS16 (11746705_a_at) / Fold change /veh RGS16 (11746705_a_at) / RFU VCAN (11755009_s_at) / Fold change /veh VCAN (11755009_s_at) / RFU RHOB (11743442_s_at) / Fold change /veh RHOB (11743442_s_at) / RFU RGS16 (11720943_a_at) / Fold change /veh RGS16 (11720943_a_at) / RFU RGS16 (11720944_at) / Fold change /veh RGS16 (11720944_at) / RFU, VPS4B / Fold change vs veh, VPS4B / RFU, CREB1 / Fold change vs veh, CREB1 / RFU, DNAJC13 / Fold change vs veh, DNAJC13 / RFU, GNAQ / Fold change vs veh, GNAQ / RFU, CDK5R1 / Fold change vs veh, CDK5R1 / RFU, ZRANB3 / Fold change vs veh, ZRANB3 / RFU, CUL4A / Fold change vs veh, CUL4A / RFU, CCNY / Fold change vs veh, CCNY / RFU, UFL1 / Fold change vs veh, UFL1 / RFU, COG3 / Fold change vs veh, COG3 / RFU, DIAPH2 / Fold change vs veh, DIAPH2 / RFU, SKA2 / Fold change vs veh, SKA2 / RFU, AFF3 / Fold change vs veh, AFF3 / RFU, LMF1 / Fold change vs veh, LMF1 / RFU, IPO11 / Fold change vs veh, IPO11 / RFU, DFFB / Fold change vs veh, DFFB / RFU, FOXP1 / Fold change vs veh, FOXP1 / RFU, CARD8 / Fold change vs veh, CARD8 / RFU, STRN3 / Fold change vs veh, STRN3 / RFU, ADK / Fold change vs veh, ADK / RFU, RASSF2 / Fold change vs veh, RASSF2 / RFU, WIPF1 / Fold change vs veh, WIPF1 / RFU, LARP1B / Fold change vs veh, LARP1B / RFU, RASA1 / Fold change vs veh, RASA1 / RFU, RB1 / Fold change vs veh, RB1 / RFU, PPFIA1 / Fold change vs veh, PPFIA1 / RFU, MAT2A / Fold change vs veh, MAT2A / RFU, CCT5 / Fold change vs veh, CCT5 / RFU, WDR92 / Fold change vs veh, WDR92 / RFU, CUX1 / Fold change vs veh, CUX1 / RFU, TTC7A / Fold change vs veh, TTC7A / RFU, TMEM135 / Fold change vs veh, TMEM135 / RFU, DEPTOR / Fold change vs veh, DEPTOR / RFU, CPM / Fold change vs veh, CPM / RFU, DNAJB6 / Fold change vs veh, DNAJB6 / RFU, CACNA2D3 / Fold change vs veh, CACNA2D3 / RFU, DTX4 / Fold change vs veh, DTX4 / RFU, TFCP2 / Fold change vs veh, TFCP2 / RFU, GMCL1 /// GMCL1P1 / Fold change vs veh, GMCL1 /// GMCL1P1 / RFU, AEBP2 / Fold change vs veh, AEBP2 / RFU, SNHG1 /// SNORD22 /// SNORD25 /// SNORD26 /// SNORD27 /// SNORD28 /// SNORD29 /// SNORD31 / Fold change vs veh, SNHG1 /// SNORD22 /// SNORD25 /// SNORD26 /// SNORD27 /// SNORD28 /// SNORD29 /// SNORD31 / Fold change (Aza/veh), C12orf56 (ProbeSet 11735607_a_at) / Fold change (ACY-1035/veh), C12orf56 (ProbeSet 11735607_a_at) / Fold change (Aza/veh), FGFR1OP (ProbeSet 11751329_s_at) / Fold change (ACY-1035/veh), FGFR1OP (ProbeSet 11751329_s_at) / Fold change (Aza/veh), VPS36 (ProbeSet 11739960_a_at) / Fold change (ACY-1035/veh), VPS36 (ProbeSet 11739960_a_at) / RFU SYPL1 (11715823_x_at) / Fold change /veh SYPL1 (11715823_x_at) / RFU IGFBP7 (11715501_s_at) / Fold change /veh IGFBP7 (11715501_s_at) / RFU REEP3 (11722064_at) / Fold change /veh REEP3 (11722064_at) / RFU IGLL1 (11728026_x_at) / Fold change /veh IGLL1 (11728026_x_at): dose or concentration left out as unconfirmed. The conditions noted are these: MV-4-11 cells, 48 hours.

Molecules are shown by their SMILES.

For `Nc1ncn([C@@H]2O[C@H](CO)[C@@H](O)[C@H]2O)c(=O)n1` [azacitidine], the “Fold change /veh RHOB (11743442_s_at)” value was determined as 1.27.

The values above are taken from article PMC5218480 (PLoS ONE, 2017).
